Non-standard residues stand in square brackets, D forms with d. Residues, ends and D or L forms follow the SMILES beside them. *: point of attachment. Ala(9-anthryl) = N[C@@H](Cc1c2ccccc2cc2ccccc12)C(=O)O; Phe(4-tBu) = CC(C)(C)c1ccc(C[C@H](N)C(=O)O)cc1; Bip = N[C@@H](Cc1ccc(-c2ccccc2)cc1)C(=O)O; Dip = N[C@H](C(=O)O)C(c1ccccc1)c1ccccc1; Morpholine(3S-CO) = O=C(O)[C@@H]1COCCN1; 2Nal = N[C@@H](Cc1ccc2ccccc2c1)C(=O)O; X2 = C[C@H]1NC(=O)N[C@H]1CCCCCC(=O)*; Bta = N[C@@H](Cc1csc2ccccc12)C(=O)O; β3hF = N[C@H](CC(=O)O)Cc1ccccc1; Cit = NC(=O)NCCC[C@H](N)C(=O)O; Pip = O=C(O)[C@@H]1CCCCN1; Acryloyl = C=CC(=O)*; ClAc = O=C(CCl)*; X1 = O=C(C1CO1)* A value given as a limit tells only on which side of the number the result lay.

The values that follow come from patent US20210238225A1, “PEPTIDOMIMETIC INHIBITORS OF THE PEPTIDYL-PROLYL CIS/TRANS ISOMERASE (PIN1)” (DANA-FARBER CANCER INSTITUTE, INC., priority 2018, published 2021).

The target of one assay is Pin1 (GST-Pin1) (Homo sapiens, UniProt Q13526). The assay can be described thus: Fluorescence polarization (FP) assay, binding to Pin1. Conditions: Ki, μM (FP Assay), competition with fluorescein-labeled peptide probe; 12 hours pre-incubation at 4° C.; Kenakin Ki equation.
Pin1 (GST-Pin1), sequence (Q13526 whole entry): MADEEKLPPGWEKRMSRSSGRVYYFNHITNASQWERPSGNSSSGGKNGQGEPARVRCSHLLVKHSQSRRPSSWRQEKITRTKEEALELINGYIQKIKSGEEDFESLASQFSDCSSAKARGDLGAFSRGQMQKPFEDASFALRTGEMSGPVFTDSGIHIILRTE
The molecule `C[C@H]1NC(=O)N[C@H]1CCCCCC(=O)NCCCC[C@H](NC(=O)[C@H](CCCNC(N)=O)NC(=O)[C@H](Cc1c[nH]c2ccccc12)NC(=O)[C@@H]1CCCCN1C(=O)[C@H](CCC(=O)O)NC(=O)CCl)C(N)=O` [Compound 2c-2, (S)-5-((S)-2-(((S)-1-(((S)-1-(((S)-1-Amino-6-(6-((4S,5R)-5-methyl-2-oxoimidazolidin-4-yl)hexanamido)-1-oxohexan-2-yl)amino)-1-oxo-5-ureidopentan-2-yl)amino)-3-(1H-indol-3-yl)-1-oxopropan-2-yl)carbamoyl)piperidin-1-yl)-4-(2-chloroacetamido)-5-oxopentanoic acid] (ClAc-E[Pip]W[Cit]K(X2)-NH2) registered an inhibition constant Ki of 0.03 µM.

Still in this assay, the particulars now being: competition with fluorescein-labeled peptide probe; 12 hours pre-incubation at 4° C.; Kenakin Ki equation; read-out: Ki, μM (FP Assay).
In the case of `C=CC(=O)N[C@H](CC(=O)O)C(=O)N1CCCC[C@H]1C(=O)N[C@@H](Cc1ccc2ccccc2c1)C(=O)N[C@@H](CCC(N)=O)C(N)=O` [Compound 2-34, (R)-3-Acrylamido-4-((S)-2-(((S)-1-(((S)-1,5-diamino-1,5-dioxopentan-2-yl)amino)-3-(naphthalen-2-yl)-1-oxopropan-2-yl)carbamoyl)piperidin-1-yl)-4-oxobutanoic acid] (Acryloyl-[dD][Pip][2Nal]Q-NH2), the inhibitory constant (Ki) was > 10 µM.
Still for that read-out and setting: then `C=CC(=O)N[C@@H](CC(=O)O)C(=O)N1CCCC[C@H]1C(=O)N[C@@H](Cc1ccc2ccccc2c1)C(=O)N[C@@H](CCC(N)=O)C(N)=O` [Compound 2-35, (S)-3-Acrylamido-4-((S)-2-(((S)-1-(((S)-1,5-diamino-1,5-dioxopentan-2-yl)amino)-3-(naphthalen-2-yl)-1-oxopropan-2-yl)carbamoyl)piperidin-1-yl)-4-oxobutanoic acid] (Acryloyl-D[Pip][2Nal]Q-NH2), with > 10 µM.
On the same count and under the same terms, next, `C=CC(=O)N[C@@H](CCC(=O)O)C(=O)N1CCCC[C@H]1C(=O)N[C@@H](Cc1ccc2ccccc2c1)C(=O)N[C@@H](CCC(N)=O)C(N)=O` [Compound 2b-1, (S)-4-Acrylamido-5-((S)-2-(((S)-1-(((S)-1,5-diamino-1,5-dioxopentan-2-yl)amino)-3-(naphthalen-2-yl)-1-oxopropan-2-yl)carbamoyl)piperidin-1-yl)-5-oxopentanoic acid] (Acryloyl-E[Pip][2Nal]Q-NH2): > 10 µM; `C=CC(=O)N[C@H](CCC(=O)O)C(=O)N1CCCC[C@H]1C(=O)N[C@@H](Cc1ccc2ccccc2c1)C(=O)N[C@@H](CCC(N)=O)C(N)=O` [Compound 2b-2, (R)-4-Acrylamido-5-((S)-2-(((S)-1-(((S)-1,5-diamino-1,5-dioxopentan-2-yl)amino)-3-(naphthalen-2-yl)-1-oxopropan-2-yl)carbamoyl)piperidin-1-yl)-5-oxopentanoic acid] (Acryloyl-[dE][Pip][2Nal]Q-NH2): > 10 µM; `NC(=O)CC[C@H](NC(=O)[C@H](Cc1ccc2ccccc2c1)NC(=O)[C@@H]1CCCCN1C(=O)[C@@H](CCC(=O)O)NC(=O)CCl)C(N)=O` [Compound 2b-4, (R)-4-(2-Chloroacetamido)-5-((S)-2-(((S)-1-(((S)-1,5-diamino-1,5-dioxopentan-2-yl)amino)-3-(naphthalen-2-yl)-1-oxopropan-2-yl)carbamoyl)piperidin-1-yl)-5-oxopentanoic acid] (ClAc-[dE][Pip][2Nal]Q-NH2): > 10 µM.
Still for that read-out and setting: then `NC(=O)CC[C@H](NC(=O)[C@H](Cc1ccc2ccccc2c1)NC(=O)[C@@H]1COCCN1C(=O)[C@H](CCC(=O)O)NC(=O)CCl)C(N)=O` [Compound 2b-5, (S)-4-(2-Chloroacetamido)-5-((S)-3-(((S)-1-(((S)-1,5-diamino-1,5-dioxopentan-2-yl)amino)-3-(naphthalen-2-yl)-1-oxopropan-2-yl)carbamoyl)morpholino)-5-oxopentanoic acid] (ClAc-E[Morpholine(3S-CO)][2Nal]Q-NH2), with > 10 µM.
`NC(=O)[C@H](Cc1c[nH]cn1)NC(=O)[C@H](Cc1ccc2ccccc2c1)NC(=O)[C@@H]1CCCCN1C(=O)[C@H](CCC(=O)O)NC(=O)CCl` [Compound 2b-7, (S)-5-((S)-2-(((S)-1-(((S)-1-Amino-3-(1H-imidazol-4-yl)-1-oxopropan-2-yl)amino)-3-(naphthalen-2-yl)-1-oxopropan-2-yl)carbamoyl)piperidin-1-yl)-4-(2-chloroacetamido)-5-oxopentanoic acid] (ClAc-E[Pip][2Nal]H-NH2): the Ki was 4.02 µM.
`NC(=O)CC[C@H](NC(=O)[C@H](Cc1csc2ccccc12)NC(=O)[C@@H]1CCCCN1C(=O)[C@H](CCC(=O)O)NC(=O)CCl)C(N)=O` [Compound 2b-8, (S)-5-((S)-2-(((S)-3-(Benzo[6]thiophen-3-yl)-1-(((S)-1,5-diamino-1,5-dioxopentan-2-yl)amino)-1-oxopropan-2-yl)carbamoyl)piperidin-1-yl)-4-(2-chloroacetamido)-5-oxopentanoic acid] (ClAc-E[Pip][Bta]Q-NH2): the Ki came out at 2.83 µM.
Same read-out and setting: next, `N=C(N)NCCC[C@H](NC(=O)[C@H](Cc1ccc(-c2ccccc2)cc1)NC(=O)[C@@H]1CCCCN1C(=O)[C@H](CCC(=O)O)NC(=O)CCl)C(N)=O` [Compound 2b-9, (S)-5-((S)-2-(((S)-3-([1,1′-Biphenyl]-4-yl)-1-(((S)-1-amino-5-guanidino-1-oxopentan-2-yl)amino)-1-oxopropan-2-yl)carbamoyl)piperidin-1-yl)-4-(2-chloroacetamido)-5-oxopentanoic acid] (ClAc-E[Pip][Bip]R-NH2): 0.19 µM; `N=C(N)NCCC[C@H](NC(=O)[C@@H](NC(=O)[C@@H]1CCCCN1C(=O)[C@H](CCC(=O)O)NC(=O)CCl)C(c1ccccc1)c1ccccc1)C(N)=O` [Compound 2b-10, (S)-5-((S)-2-(((S)-1-(((S)-1-Amino-5-guanidino-1-oxopentan-2-yl)amino)-1-oxo-3,3-diphenylpropan-2-yl)carbamoyl)piperidin-1-yl)-4-(2-chloroacetamido)-5-oxopentanoic acid] (ClAc-E[Pip][Dip]R-NH2): 0.85 µM; `N=C(N)NCCC[C@H](NC(=O)[C@H](Cc1c2ccccc2cc2ccccc12)NC(=O)[C@@H]1CCCCN1C(=O)[C@H](CCC(=O)O)NC(=O)CCl)C(N)=O` [Compound 2b-11, (S)-5-((S)-2-(((S)-1-(((S)-1-Amino-5-guanidino-1-oxopentan-2-yl)amino)-3-(anthracen-9-yl)-1-oxopropan-2-yl)carbamoyl)piperidin-1-yl)-4-(2-chloroacetamido)-5-oxopentanoic acid] (ClAc-E[Pip][Ala(9-anthryl)]R-NH2): 0.609 µM.
Turning to `NC(=O)[C@H](CO)NC(=O)[C@H](Cc1ccc2ccccc2c1)NC(=O)[C@@H]1CCCCN1C(=O)[C@H](CCC(=O)O)NC(=O)CCl` [Compound 2b-12, (S)-5-((S)-2-(((S)-1-(((S)-1-Amino-3-hydroxy-1-oxopropan-2-yl)amino)-3-(naphthalen-2-yl)-1-oxopropan-2-yl)carbamoyl)piperidin-1-yl)-4-(2-chloroacetamido)-5-oxopentanoic acid] (ClAc-E[Pip][2Nal]S-NH2), the inhibition constant Ki came out at 0.23 µM.
Still for that read-out and setting: next, `CC(C)(C)c1ccc(C[C@H](NC(=O)[C@@H]2CCCCN2C(=O)[C@H](CCC(=O)O)NC(=O)CCl)C(=O)N[C@@H](CCCNC(=N)N)C(N)=O)cc1` [Compound 2b-14, (S)-5-((S)-2-(((S)-1-(((S)-1-Amino-5-guanidino-1-oxopentan-2-yl)amino)-3-(4-(tert-butyl)phenyl)-1-oxopropan-2-yl)carbamoyl)piperidin-1-yl)-4-(2-chloroacetamido)-5-oxopentanoic acid] (ClAc-E[Pip][Phe(4-tBu)]R-NH2): 0.19 µM; `N=C(N)NCCC[C@H](NC(=O)C[C@H](Cc1ccccc1)NC(=O)[C@@H]1CCCCN1C(=O)[C@H](CCC(=O)O)NC(=O)CCl)C(N)=O` [Compound 2b-15, (S)-5-((S)-2-(((S)-4-(((S)-1-Amino-5-guanidino-1-oxopentan-2-yl)amino)-4-oxo-1-phenylbutan-2-yl)carbamoyl)piperidin-1-yl)-4-(2-chloroacetamido)-5-oxopentanoic acid] (ClAc-E[Pip][β3hF]R-NH2): > 10 µM; `C=CC(=O)N[C@@H](CCC(=O)O)C(=O)N1CCCC[C@H]1C(=O)N[C@@H](Cc1ccc2ccccc2c1)C(=O)N[C@@H](CCCNC(=N)N)C(N)=O` [Compound 2b-16, (S)-4-Acrylamido-5-((S)-2-(((S)-1-(((S)-1-amino-5-guanidino-1-oxopentan-2-yl)amino)-3-(naphthalen-2-yl)-1-oxopropan-2-yl)carbamoyl)piperidin-1-yl)-5-oxopentanoic acid] (Acryloyl-E[Pip][2Nal]R-NH2): > 10 µM.
Regarding `C[C@H](NC(=O)[C@H](C)NC(=O)[C@H](CCCNC(N)=O)NC(=O)[C@H](Cc1c[nH]c2ccccc12)NC(=O)[C@@H]1CCCCN1C(=O)[C@H](CCC(=O)O)NC(=O)CCl)C(=O)N[C@@H](CCCCNC(=O)CCCCC[C@@H]1NC(=O)N[C@@H]1C)C(N)=O` [Compound 2c-1, (S)-5-((S)-2-(((2S,5S,8S,11S)-14-Carbamoyl-1-(1H-indol-3-yl)-8,11-dimethyl-25-((4S,5R)-5-methyl-2-oxoimidazolidin-4-yl)-3,6,9,12,20-pentaoxo-5-(3-ureidopropyl)-4,7,10,13,19-pentaazapentacosan-2-yl)carbamoyl)piperidin-1-yl)-4-(2-chloroacetamido)-5-oxopentanoic acid] (ClAc-E[Pip]W[Cit]AAK(X2)-NH2), the Ki stood at 0.04 µM.
Same read-out and setting: then `COC(=O)CC[C@H](NC(=O)C1CO1)C(=O)N1CCCC[C@H]1C(=O)N[C@@H](Cc1c[nH]c2ccccc12)C(=O)N[C@@H](CCCNC(N)=O)C(N)=O` (stereo partly drawn) [Compound 3, Methyl (4S)-5-((S)-2-(((S)-1-(((S)-1-amino-1-oxo-5-ureidopentan-2-yl)amino)-3-(1H-indol-3-yl)-1-oxopropan-2-yl)carbamoyl)piperidin-1-yl)-4-(oxirane-2-carboxamido)-5-oxopentanoate] (X1-E(OMe)[Pip]W[Cit]-NH2), with 4.17 µM.
